Data taken from ChEMBL document CHEMBL1151635, “Antineoplastic agents, 105. Zephyranthes grandiflora” (1984).

Legend:
Type in all cases: functional
P388 [1] = assay: In vivo cytotoxicity against mouse P388 cells at 12.5 mg/kg relative to control
P388 [2] = assay: In vivo cytotoxicity against mouse P388 cells at 0.75 to 6 mg/kg relative to control; settings: dose mg/kg 0.75-6
P388 [3] = assay: Cytotoxicity against mouse P388 cells; settings: read-out: ED50 (the source's name)
P388 [4] = assay: In vivo cytotoxicity against mouse P388 cells at 0.78 to 3.1 mg/kg relative to control; settings: dose mg/kg 0.78-3.1

SMILES: O=C1N[C@H]2[C@H](O)[C@H](O)[C@@H](O)[C@H](O)[C@@H]2c2cc3c(c(O)c21)OCO3 [PANCRATISTATIN]
- T/C (P388 [1]): 206%
- T/C (P388 [2]): 138%
- EC50 (P388 [3]): < 0.01 mg/L
- T/C (P388 [4]): 135%
